Where “and” joins values, the source holds several entries; their conditions need not be identical. Equal values may be shown once.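 Dose response: 5 concentrations. Exposure: 48 h. Format: 96-well plates. Endpoint: linear interpolation; highest concentration if not reached. GI50: concentration for 50% inhibition of growth. TGI marks complete inhibition of growth.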
Key:
Assay in all cases: inhibition of tumour cell growth, NCI panel, 48 h
NCI-H226 lung = system: NCI-H226 lung
SF-295 CNS = system: SF-295 CNS
NCI-H23 lung = system: NCI-H23 lung
NCI-H460 lung = system: NCI-H460 lung
HT29 colon = system: HT29 colon
EKVX NSCLC = system: EKVX NSCLC
SK-MEL-5 melanoma = system: SK-MEL-5 melanoma
PC-3 prostate = system: PC-3 prostate
BT-549 breast = system: BT-549 breast
HS 578T breast = system: HS 578T breast

## O=c1cccccc1NCCCNc1cccccc1=O
NCI-H226 lung
  TGI: > 100 µM
SF-295 CNS
  TGI: > 100 µM
NCI-H23 lung
  TGI: > 100 µM
NCI-H460 lung
  TGI: > 100 µM
HT29 colon
  TGI: > 100 µM
EKVX NSCLC
  TGI: > 100 µM

## CN(C)P(=O)(/C(N)=N/Nc1ccc([N+](=O)[O-])cc1)N(C)C
NCI-H226 lung
  TGI: > 100 µM
NCI-H23 lung
  TGI: > 100 µM
SK-MEL-5 melanoma
  TGI: > 100 µM
NCI-H460 lung
  TGI: > 100 µM
EKVX NSCLC
  TGI: > 100 µM

## Cc1ccc2nc3c(C(=O)NCCN(C)C)cccc3nc2c1
NCI-H226 lung
  TGI: 10.4 µM
SF-295 CNS
  TGI: > 27.1 µM
NCI-H23 lung
  TGI: 17.1 µM
SK-MEL-5 melanoma
  TGI: > 39.8 µM
HT29 colon
  TGI: 15.4 µM
EKVX NSCLC
  TGI: 24.2 µM

## CCC[CH2][Sn]1([CH2]CCC)[O]C(=O)C(C(C)C)N=Cc2ccccc2[O]1 (stereo not given)
SF-295 CNS
  GI50: 1.04 µM
  TGI: 2.29 µM
NCI-H23 lung
  GI50: 0.158 µM
  TGI: 0.534 µM
SK-MEL-5 melanoma
  GI50: 1.07 µM
  TGI: > 100 µM
NCI-H460 lung
  GI50: 1.28 µM
  TGI: 2.57 µM
HT29 colon
  GI50: 0.907 µM
  TGI: 2.21 µM
EKVX NSCLC
  GI50: 0.402 µM
  TGI: 1.67 µM

## CC(=O)OC1CC(O)C23COC(O)C1(C)C2CC(O)C1(C)C3C(=O)C(O)C2(C)C(c3ccoc3)CC3OC321 (stereo not given)
NCI-H226 lung
  GI50: < 0.0188 µM
  TGI: 18.4 µM
SF-295 CNS
  GI50: 0.0522 µM
PC-3 prostate
  GI50: 0.0114 µM
  TGI: > 100 µM
NCI-H23 lung
  TGI: > 100 µM
SK-MEL-5 melanoma
  GI50: < 0.01 µM
NCI-H460 lung
  GI50: < 0.0486 µM
  TGI: > 100 µM
BT-549 breast
  GI50: 0.071 µM
  TGI: > 100 µM
HT29 colon
  GI50: < 0.01 µM
  TGI: > 33.3 µM
EKVX NSCLC
  GI50: 1.94 µM
  TGI: > 100 µM

## Cn1cc(C(=O)c2ccccc2)ccc1=O
NCI-H226 lung
  TGI: > 100 µM
SF-295 CNS
  TGI: > 100 µM
NCI-H23 lung
  TGI: > 100 µM
SK-MEL-5 melanoma
  TGI: > 100 µM
NCI-H460 lung
  TGI: > 100 µM
HT29 colon
  TGI: > 100 µM
EKVX NSCLC
  TGI: > 100 µM

## COc1ccc(C(C)c2cc3c(cc2OC)OCO3)cc1 (stereo not given)
NCI-H226 lung
  TGI: 20.6 µM
PC-3 prostate
  TGI: > 100 µM
NCI-H23 lung
  TGI: > 21.5 µM
SK-MEL-5 melanoma
  TGI: 2.31 µM
NCI-H460 lung
  TGI: 4.69 µM
BT-549 breast
  TGI: > 100 µM
HT29 colon
  TGI: 0.43 µM
EKVX NSCLC
  TGI: > 100 µM

## O=C(CP(=O)(c1ccccc1)c1ccccc1)c1cccc(C(=O)CP(=O)(c2ccccc2)c2ccccc2)c1
NCI-H226 lung
  TGI: > 100 µM
SF-295 CNS
  TGI: 30 µM
PC-3 prostate
  TGI: > 100 µM
SK-MEL-5 melanoma
  TGI: > 100 µM
HS 578T breast
  TGI: 57.9 µM
NCI-H460 lung
  TGI: > 100 µM
HT29 colon
  TGI: > 100 µM
EKVX NSCLC
  TGI: > 100 µM

## NC(CC(=O)OCc1ccccc1)C(=O)OCc1ccccc1 (stereo not given)
SF-295 CNS
  TGI: > 100 µM
PC-3 prostate
  TGI: > 100 µM
NCI-H23 lung
  TGI: > 100 µM
SK-MEL-5 melanoma
  TGI: > 100 µM
HS 578T breast
  TGI: > 100 µM
NCI-H460 lung
  TGI: > 100 µM
EKVX NSCLC
  TGI: > 100 µM

## CC(=O)OC[C@]12CC[C@H]3[C@@H](C[C@H]4O[C@]45[C@@H](O)C=CC(=O)[C@]35C)[C@@H]1CC[C@@H]2[C@H](C)[C@H]1CC(C)=C(C)C(=O)O1
NCI-H226 lung
  GI50: 0.983 µM and 0.583 µM
  TGI: 1.9 µM
SF-295 CNS
  GI50: 0.974 µM and 1.89 µM
  TGI: 4.23 µM
NCI-H23 lung
  GI50: 0.185 µM and 0.324 µM
  TGI: 0.371 µM and 0.858 µM
SK-MEL-5 melanoma
  GI50: 0.702 µM and 0.664 µM
  TGI: 2.02 µM
NCI-H460 lung
  GI50: 0.588 µM and 1.07 µM
  TGI: 3.53 µM
HT29 colon
  GI50: 0.302 µM and 0.305 µM
  TGI: 0.716 µM and 0.961 µM
EKVX NSCLC
  GI50: 0.601 µM and 0.753 µM
  TGI: 1.94 µM

## CCOC(=O)NC(=O)c1cn(CCOCCOC(=O)NCCCCCCNC(=O)OCCOCCn2cc(C(=O)NC(=O)OCC)c(=O)[nH]c2=O)c(=O)[nH]c1=O
SF-295 CNS
  TGI: > 100 µM
NCI-H23 lung
  TGI: > 100 µM
SK-MEL-5 melanoma
  TGI: > 100 µM
NCI-H460 lung
  TGI: > 100 µM
HT29 colon
  TGI: > 100 µM
EKVX NSCLC
  TGI: > 100 µM

## CN(C)c1ccc(N)cc1
NCI-H226 lung
  GI50: 12.4 µM
  TGI: 48 µM
SF-295 CNS
  GI50: 2.37 µM
  TGI: 6.48 µM
PC-3 prostate
  GI50: 3.53 µM
  TGI: 21.8 µM
NCI-H23 lung
  GI50: 3.14 µM
  TGI: 14.1 µM
SK-MEL-5 melanoma
  GI50: 3.91 µM
  TGI: 13.7 µM
NCI-H460 lung
  GI50: 3.09 µM
  TGI: 13 µM
BT-549 breast
  GI50: 4.7 µM
  TGI: 16.1 µM
HT29 colon
  GI50: 3.04 µM
  TGI: 10.8 µM
EKVX NSCLC
  GI50: 3.32 µM
  TGI: 26.4 µM

## O=C(O)CP(=S)(S)c1ccccc1 (stereo not given)
NCI-H226 lung
  TGI: > 100 µM
SF-295 CNS
  TGI: > 100 µM
NCI-H23 lung
  TGI: > 100 µM
SK-MEL-5 melanoma
  TGI: > 100 µM
NCI-H460 lung
  TGI: > 100 µM
HT29 colon
  TGI: > 100 µM
EKVX NSCLC
  TGI: > 100 µM

## COC(=O)c1cccc2cccc(C(=O)Nc3ccc(C)cc3C)c12
NCI-H226 lung
  TGI: > 100 µM
SF-295 CNS
  TGI: > 100 µM
NCI-H23 lung
  TGI: > 100 µM
SK-MEL-5 melanoma
  TGI: > 100 µM
NCI-H460 lung
  TGI: > 100 µM
HT29 colon
  TGI: > 100 µM
EKVX NSCLC
  TGI: > 100 µM

## Cc1ccccc1N(CCC#N)C1=NN(C(=O)CC(=O)Nc2ccccc2)C(c2ccccc2)C1 (stereo not given)
NCI-H226 lung
  TGI: > 100 µM
SF-295 CNS
  TGI: > 100 µM
NCI-H23 lung
  TGI: > 100 µM
SK-MEL-5 melanoma
  TGI: > 100 µM
NCI-H460 lung
  TGI: > 100 µM
HT29 colon
  TGI: > 100 µM
EKVX NSCLC
  TGI: > 100 µM

## CC1(n2nc(-c3ccccc3)n(-c3ccccc3)c2=O)CSC1
NCI-H226 lung
  TGI: > 100 µM
SF-295 CNS
  TGI: > 100 µM
NCI-H23 lung
  TGI: > 100 µM
SK-MEL-5 melanoma
  TGI: > 100 µM
NCI-H460 lung
  TGI: > 100 µM
HT29 colon
  TGI: > 100 µM
EKVX NSCLC
  TGI: > 100 µM
